Biological target: GABAA receptor
Test: Steroid inhibition of [35S]-TBPS binding, rat brain cortical membranes
Details: 3 nM [35S]-TBPS, in the presence of 5 mM GABA
How it was run: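 In the presence of […], compounds (DMSO 0.5% final) competed with 3 nM [35S]-TBPS for Sprague-Dawley rat cortical membranes, pH 7.4 phosphate buffer, 90 min, room temperature. Filtration and scintillation counting; specific binding defined by […]; IC50 and maximal inhibition fitted per experiment, averaged as mean ± SEM.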

## COC[C@H]1C[C@H]2[C@H](CC[C@@H]3[C@@H]2CC[C@@]2(C)[C@H]3CC[C@@H]2[C@](C)(O)Cn2cc(C#N)cn2)C[C@]1(C)O [Compound 58, 1-((S)-2-hydroxy-2-((2R,3S,5R,8R,9R,10S,13S,14S,17S)-3-hydroxy-2-(methoxymethyl)-3,13-dimethylhexadecahydro-1H-cyclopenta[a]phenanthren-17-yl)propyl)-1H-pyrazole-4-carbonitrile]
  IC50: < 100 nM

## COC[C@@H]1C[C@H]2[C@H](CC[C@@H]3[C@@H]2CC[C@@]2(C)[C@H]3CC[C@@H]2[C@](C)(O)Cn2cc(C#N)cn2)C[C@]1(C)O [Compound 58A, 1-((S)-2-hydroxy-2-((2S,3S,5R,8R,9R,10S,13S,14S,17S)-3-hydroxy-2-(methoxymethyl)-3,13-dimethylhexadecahydro-1H-cyclopenta[a]phenanthren-17-yl)propyl)-1H-pyrazole-4-carbonitrile]
  IC50: < 100 nM

## COC[C@H]1C[C@H]2[C@H](CC[C@@H]3[C@@H]2CC[C@@]2(C)[C@H]3CC[C@@H]2[C@@](C)(O)Cn2cc(C#N)cn2)C[C@]1(C)O [Compound 59, 1-((R)-2-hydroxy-2-((2R,3S,5R,8R,9R,10S,13S,14S,17S)-3-hydroxy-2-(methoxymethyl)-3,13-dimethylhexadecahydro-1H-cyclopenta[a]phenanthren-17-yl)propyl)-1H-pyrazole-4-carbonitrile]
  IC50: 100 to 1000 nM

## COC[C@@H]1C[C@H]2[C@H](CC[C@@H]3[C@@H]2CC[C@@]2(C)[C@H]3CC[C@@H]2[C@@](C)(O)Cn2cc(C#N)cn2)C[C@]1(C)O [Compound 59A, 1-((R)-2-hydroxy-2-((2S,3S,5R,8R,9R,10S,13S,14S,17S)-3-hydroxy-2-(methoxymethyl)-3,13-dimethylhexadecahydro-1H-cyclopenta[a]phenanthren-17-yl)propyl)-1H-pyrazole-4-carbonitrile]
  IC50: 100 to 1000 nM

## CO[C@@H]1C[C@H]2[C@H](CC[C@@H]3[C@@H]2CC[C@@]2(C)[C@H]3CC[C@@H]2[C@](C)(O)Cn2cc(C#N)cn2)C[C@]1(C)O [Compound 60, 1-((S)-2-hydroxy-2-((2R,3S,5R,8R,9R,10S,13S,14S,17S)-3-hydroxy-2-methoxy-3,13-dimethylhexadecahydro-1H-cyclopenta[a]phenanthren-17-yl)propyl)-1H-pyrazole-4-carbonitrile]
  IC50: < 100 nM

## CO[C@@H]1C[C@H]2[C@H](CC[C@@H]3[C@@H]2CC[C@@]2(C)[C@H]3CC[C@@H]2[C@@](C)(O)Cn2cc(C#N)cn2)C[C@]1(C)O [Compound 61, 1-((R)-2-hydroxy-2-((2R,3S,5R,8R,9R,10S,13S,14S,17S)-3-hydroxy-2-methoxy-3,13-dimethylhexadecahydro-1H-cyclopenta[a]phenanthren-17-yl)propyl)-1H-pyrazole-4-carbonitrile]
  IC50: 100 to 1000 nM

— patent US20250236639A1, “NEUROACTIVE STEROIDS AND COMPOSITIONS THEREOF” (Sage Therapeutics, Inc., priority 2019, published 2025)
